PubChem BioAssay AID248 (DTP/NCI, 2004)
Where “and” joins values, the source holds several entries; their conditions need not be identical. Identical values can stand only once. Toxic doses and inconclusive results are not listed. Cut-off read from the data, not from the text of the source: active = T/C of 150% or more; inactive = T/C below 125%.

Tested on: L1210 leukemia ip in BDF1 mice, survival T/C
Assay: NCI In Vivo Anticancer Drug Screen. Data for tumor model L1210 Leukemia (intraperitoneal) in B6D2F1 (BDF1) mice
Settings: endpoint: mean survival time, higher = longer survival
How it was run: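 Transplanted-tumor mice were given test agent; controls received vehicle only. Survival readings from the two groups were divided (treated over control).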

[1] = dose: 100.0 mg/kg/injection, schedule: Q04DX003 (ip), vehicle: saline with Tween-80
[2] = dose: 200.0 mg/kg/injection, schedule: Q04DX003 (ip), vehicle: saline with Tween-80
[3] = dose: 50.0 mg/kg/injection, schedule: Q01DX009 (ip), vehicle: Klucel (hydroxypropylcellulose) (HPC)
[4] = dose: 50.0 mg/kg/injection, schedule: Q01DX001 (ip), vehicle: saline
[5] = dose: 100.0 mg/kg/injection, schedule: Q01DX001 (ip), vehicle: saline
[6] = dose: 100.0 mg/kg/injection, schedule: Q01DX009 (ip), vehicle: saline with Tween-80
[7] = dose: 100.0 mg/kg/injection, schedule: Q01DX009 (ip), vehicle: Klucel (hydroxypropylcellulose) (HPC)
[8] = dose: 200.0 mg/kg/injection, schedule: Q01DX009 (ip), vehicle: Klucel (hydroxypropylcellulose) (HPC)
[9] = dose: 400.0 mg/kg/injection, schedule: Q01DX009 (ip), vehicle: Klucel (hydroxypropylcellulose) (HPC)
[10] = dose: 400.0 mg/kg/injection, schedule: Q01DX001 (ip), vehicle: saline
[11] = dose: 200.0 mg/kg/injection, schedule: Q01DX001 (ip), vehicle: saline
[12] = dose: 12.5 mg/kg/injection, schedule: Q01DX009 (ip), vehicle: saline with Tween-80

Measured: T/C

CC(C)(C)C(=O)c1ccc(-c2ccccc2)cc1
inactive: dose: 100.0 mg/kg/injection, schedule: Q04DX002 (ip), vehicle: other 91 % of control | dose: 200.0 mg/kg/injection, schedule: Q04DX002 (ip), vehicle: other 94 % of control | dose: 400.0 mg/kg/injection, schedule: Q04DX002 (ip), vehicle: other 94 % of control

NS(=O)(=O)c1ccc(Cl)cc1
inactive: dose: 50.0 mg/kg/injection, schedule: Q01DX009 (ip), vehicle: saline 95 % of control | dose: 100.0 mg/kg/injection, schedule: Q01DX009 (ip), vehicle: saline 102 % of control | dose: 100.0 mg/kg/injection, schedule: Q04DX002 (ip), vehicle: Klucel (hydroxypropylcellulose) (HPC) 103 % of control | [1] 104 % of control | dose: 200.0 mg/kg/injection, schedule: Q04DX002 (ip), vehicle: Klucel (hydroxypropylcellulose) (HPC) 103 % of control | [2] 112 % of control | dose: 400.0 mg/kg/injection, schedule: Q04DX002 (ip), vehicle: Klucel (hydroxypropylcellulose) (HPC) 103 % of control

CCN(CC)C(=S)[S][Sb]([c]1ccccc1)[c]1ccccc1
inactive: dose: 100.0 mg/kg/injection, schedule: Q01DX001 (ip), vehicle: steriod suspending solution 110 % of control

CCc1ccc(/C=C\c2ccc(O)c(O)c2)[n+](C)c1
inactive: dose: 15.0 mg/kg/injection, schedule: Q01DX001 (ip), vehicle: saline 87 % of control | dose: 30.0 mg/kg/injection, schedule: Q01DX001 (ip), vehicle: saline 89 % of control

O=[N+]([O-])c1ccc2[nH]c(=S)sc2c1
inactive: dose: 25.0 mg/kg/injection, schedule: Q01DX009 (ip), vehicle: Klucel (hydroxypropylcellulose) (HPC) 95 % of control | [3] 95 % of control

CCCCCCCCCCCCCCCCCCNc1nc(SC)ncc1C(=O)OCC
inactive: dose: 25.0 mg/kg/injection, schedule: Q01DX001 (ip), vehicle: saline 103 % of control | [4] 102 % of control | [5] 101 % of control and 102 % of control

C=CCOc1ccccn1
inactive: dose: 50.0 mg/kg/injection, schedule: Q01DX009 (ip), vehicle: saline with Tween-80 98 % of control | dose: 50.0 mg/kg/injection, schedule: Q04DX003 (ip), vehicle: saline with Tween-80 105 % of control | [6] 104 % of control | [1] 98 % of control | dose: 200.0 mg/kg/injection, schedule: Q01DX009 (ip), vehicle: saline with Tween-80 98 % of control | [2] 102 % of control

O=C(O)CCC(=O)Nc1cccc(C(F)(F)F)c1
inactive: [7] 103 % of control | [8] 105 % of control | [9] 100 % of control

COc1ccc(/C=N/NC(=O)c2ccccc2NC(=O)c2ccccc2Cl)cc1
inactive: [3] 91 % of control | [7] 107 % of control and 91 % of control | [8] 102 % of control | [9] 98 % of control and 91 % of control

N#Cc1cccc(N)c1
inactive: [5] 109 % of control | dose: 100.0 mg/kg/injection, schedule: Q04DX003 (ip), vehicle: saline 100 % of control | dose: 200.0 mg/kg/injection, schedule: Q04DX003 (ip), vehicle: saline 94 % of control | [10] 88 % of control | dose: 400.0 mg/kg/injection, schedule: Q04DX003 (ip), vehicle: saline 93 % of control

O=C(N=C(c1ccccc1)c1ccccc1)c1ccccc1
inactive: [1] 90 % of control | [2] 90 % of control | dose: 400.0 mg/kg/injection, schedule: Q04DX003 (ip), vehicle: saline with Tween-80 88 % of control

CN(C)c1ncnc2c1ncn2C1OC(CO)C(N)C1O (stereo not given)
inactive: dose: 6.25 mg/kg/injection, schedule: Q01DX009 (ip), vehicle: saline 111 % of control | dose: 12.5 mg/kg/injection, schedule: Q01DX009 (ip), vehicle: saline 111 % of control | dose: 25.0 mg/kg/injection, schedule: Q01DX009 (ip), vehicle: saline 117 % of control | [4] 109 % of control | [5] 109 % of control | [11] 109 % of control | [10] 115 % of control

CC(COC(=O)c1ccc(N)cc1)NC1CCCCC1 (stereo not given)
inactive: dose: 75.0 mg/kg/injection, schedule: Q01DX001 (ip), vehicle: other 96 % of control | dose: 150.0 mg/kg/injection, schedule: Q01DX001 (ip), vehicle: other 102 % of control

CC([CH2][Hg][Cl])c1ccccc1 (stereo not given)
inactive: dose: 3.13 mg/kg/injection, schedule: Q01DX009 (ip), vehicle: saline with Tween-80 95 % of control | dose: 6.25 mg/kg/injection, schedule: Q01DX009 (ip), vehicle: saline with Tween-80 92 % of control | dose: 6.25 mg/kg/injection, schedule: Q04DX003 (ip), vehicle: Klucel (hydroxypropylcellulose) (HPC) 101 % of control | [12] 90 % of control | dose: 12.5 mg/kg/injection, schedule: Q04DX003 (ip), vehicle: Klucel (hydroxypropylcellulose) (HPC) 119 % of control

CCOC(=O)c1c[nH]c2cc(OCC3CC3)c(OCC3CC3)cc2c1=O
inactive: [6] 92 % of control

Cc1cc(CC(Cl)(C(F)(F)F)C(F)(F)F)cc(CC(Cl)(C(F)(F)F)C(F)(F)F)n1
inactive: [12] 108 % of control | dose: 25.0 mg/kg/injection, schedule: Q01DX009 (ip), vehicle: saline with Tween-80 106 % of control

C(COCCOCC1CO1)OCCOCC1CO1 (stereo not given)
inactive: dose: 62.0 mg/kg/injection, schedule: Q01DX Z (ip), vehicle: saline 110 % of control | dose: 125.0 mg/kg/injection, schedule: Q01DX Z (ip), vehicle: saline 117 % of control | dose: 250.0 mg/kg/injection, schedule: Q01DX Z (ip), vehicle: saline 116 % of control | dose: 500.0 mg/kg/injection, schedule: Q01DX Z (ip), vehicle: saline 108 % of control

O=C(Nc1ccc(S(=O)(=O)NC2CCCCC2)cc1)OCc1ccccc1
inactive: [5] 95 % of control | [11] 89 % of control | [10] 95 % of control

CC1OC(=O)C(C(C)C)NC(=O)C(C(C)C)OC(=O)C(C(C)C)NC(=O)C(C)OC(=O)C(C(C)C)NC(=O)C(C(C)C)OC(=O)C(C(C)C)NC(=O)C(C)OC(=O)C(C(C)C)NC(=O)C(C(C)C)OC(=O)C(C(C)C)NC1=O (stereo not given)
inactive: dose: 0.13 mg/kg/injection, schedule: Q01DX001 (ip), vehicle: saline 103 % of control | dose: 0.25 mg/kg/injection, schedule: Q01DX001 (ip), vehicle: saline 101 % of control | dose: 0.5 mg/kg/injection, schedule: Q01DX001 (ip), vehicle: saline 100 % of control | dose: 1.0 mg/kg/injection, schedule: Q01DX001 (ip), vehicle: saline 98 % of control | dose: 1.25 mg/kg/injection, schedule: Q01DX009 (ip), vehicle: saline with Tween-80 113 % of control | dose: 2.5 mg/kg/injection, schedule: Q01DX009 (ip), vehicle: saline with Tween-80 121 % of control | dose: 5.0 mg/kg/injection, schedule: Q01DX009 (ip), vehicle: saline with Tween-80 113 % of control | dose: 10.0 mg/kg/injection, schedule: Q01DX009 (ip), vehicle: saline with Tween-80 90 % of control

O=C(c1ccccc1)C1OC1(CBr)c1ccccc1 (stereo not given)
inactive: dose: 6.25 mg/kg/injection, schedule: Q01DX009 (ip), vehicle: alcohol 96 % of control | dose: 12.5 mg/kg/injection, schedule: Q01DX009 (ip), vehicle: alcohol 95 % of control | dose: 25.0 mg/kg/injection, schedule: Q01DX009 (ip), vehicle: alcohol 98 % of control | dose: 100.0 mg/kg/injection, schedule: Q01DX001 (ip), vehicle: Klucel (hydroxypropylcellulose) (HPC) 100 % of control | [7] 106 % of control | dose: 200.0 mg/kg/injection, schedule: Q01DX001 (ip), vehicle: Klucel (hydroxypropylcellulose) (HPC) 105 % of control | [8] 98 % of control | dose: 400.0 mg/kg/injection, schedule: Q01DX001 (ip), vehicle: Klucel (hydroxypropylcellulose) (HPC) 106 % of control | [9] 96 % of control
